Measured values from publication PMC9979702 (Bioorganic & Medicinal Chemistry Letters, 2023).

How the values were obtained:
[1] = system: SARS-CoV-2; type: cell-based; conditions: Vero cells
[2] = biological target: hERG (Homo sapiens, UniProt Q12809); conditions: even at 100 µM
hERG, sequence (Q12809 whole entry): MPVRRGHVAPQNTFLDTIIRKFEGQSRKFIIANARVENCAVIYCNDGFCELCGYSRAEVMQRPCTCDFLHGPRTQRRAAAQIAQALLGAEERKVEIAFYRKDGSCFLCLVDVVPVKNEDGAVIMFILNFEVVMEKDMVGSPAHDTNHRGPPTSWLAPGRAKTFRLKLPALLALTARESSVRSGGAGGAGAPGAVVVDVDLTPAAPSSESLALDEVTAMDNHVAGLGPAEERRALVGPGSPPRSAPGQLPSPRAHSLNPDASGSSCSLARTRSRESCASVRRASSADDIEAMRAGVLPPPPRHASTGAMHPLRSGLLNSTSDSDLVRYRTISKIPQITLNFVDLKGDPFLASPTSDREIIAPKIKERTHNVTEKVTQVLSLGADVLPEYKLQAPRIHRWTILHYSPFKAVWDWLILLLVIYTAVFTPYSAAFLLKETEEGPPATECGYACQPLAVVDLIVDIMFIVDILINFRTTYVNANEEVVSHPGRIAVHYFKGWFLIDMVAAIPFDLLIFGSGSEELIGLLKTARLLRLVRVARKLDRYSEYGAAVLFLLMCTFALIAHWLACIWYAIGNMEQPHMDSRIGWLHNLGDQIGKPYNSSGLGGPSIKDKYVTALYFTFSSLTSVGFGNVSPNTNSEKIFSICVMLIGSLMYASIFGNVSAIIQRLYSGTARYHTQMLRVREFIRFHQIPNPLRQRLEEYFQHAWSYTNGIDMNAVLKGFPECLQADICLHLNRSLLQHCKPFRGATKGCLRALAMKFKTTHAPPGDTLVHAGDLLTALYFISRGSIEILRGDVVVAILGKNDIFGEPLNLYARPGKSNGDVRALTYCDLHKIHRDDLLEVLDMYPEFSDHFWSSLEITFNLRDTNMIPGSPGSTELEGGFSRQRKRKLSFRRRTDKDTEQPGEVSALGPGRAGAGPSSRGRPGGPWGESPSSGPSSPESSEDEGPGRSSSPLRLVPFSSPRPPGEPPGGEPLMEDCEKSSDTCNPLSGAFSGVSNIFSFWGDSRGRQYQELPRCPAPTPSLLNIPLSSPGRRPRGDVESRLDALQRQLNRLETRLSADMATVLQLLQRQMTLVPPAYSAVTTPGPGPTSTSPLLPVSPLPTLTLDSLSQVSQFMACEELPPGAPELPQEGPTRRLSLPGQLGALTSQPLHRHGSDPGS

SMILES	antiviral activity against SARS-CoV-2 (in words) [1]	hERG binding (in words) [2]
CN(C)CCCNc1[nH]c2cc(Cl)ccc2c(=O)c1C(=O)O [Compound 7a, 7-chloro-2-((3-(dimethylamino)propyl)amino)-4-oxo-1,4-dihydroquinoline-3-carboxylic acid]	no activity	
O=C(O)c1c(Nc2cccc(F)c2)[nH]c2cc(Cl)ccc2c1=O [Compound 9b, 7-chloro-2-((3-fluorophenyl)amino)-4-oxo-1,4-dihydroquinoline-3-carboxylic acid]		no hERG binding was detected
O=c1cc(Nc2cccc(F)c2)[nH]c2cc(F)c(F)cc12 [Compound 10, 6,7-difluoro-2-((3-fluorophenyl)amino)quinolin-4(1H)-one]	no activity	
O=C(O)c1c(Nc2cccc(F)c2)[nH]c2cc(F)c(F)cc2c1=O [Compound 9f, 6,7-difluoro-2-((3-fluorophenyl)amino)-4-oxo-1,4-dihydroquinoline-3-carboxylic acid]	had antiviral activity	
